The values that follow come from paper PMC5460289, “Identification of New Shikonin Derivatives as Antitumor Agents Targeting STAT3 SH2 Domain” (Scientific Reports, 2017).

As usually defined, the IC50 is the point on the concentration scale where inhibition reaches its midpoint. High values mean lower potency, low ones higher potency.

Holding throughout (type): cell-based, human
In experiment [1] the test system is STAT3-TATA-Luc reporter in MDA-MB-231 cells. Description: STAT3 dual-luciferase reporter assay. Conditions: MDA-MB-231, 24 h treatment. As for the experimental part:
Figure 3 MDA-MB-231 cells were transfected with STAT3-TATA-Luc reporter and Renilla luciferase reporter plasmids. After 24 h, cells were treated with indicated concentrations of PMM-172 or Stattic for 24 h and then luciferase intensity was measured. Results are fold change ± SD of three independent experiments, *P < 0.05, **P < 0.01.
Cells were seeded in 24 well plates and transiently transfected together with STAT3 reporter plasmid 4 × M67 pTATA TK-Luc (0.2 μg/per well, Addgene, USA) and Renilla luciferase control reporter plasmid pRL-CMV (0.1 μg/per well, promega, USA), using lipofectamine 2000 (Invitrogen, USA). Then the cells were incubated with complete medium for 24 h with PMM-172 or Stattic. Following the treatment, the cells were harvested in 100 μL of passive lysis buffer (Promega, USA) in each well. A 25 μL aliquot of cell lysate was subjected to a luciferase assay by using the dual-luciferase assay kit (Promega, USA). STAT3 luciferase activity was measured by EnVision Mutilabel Reader (Perkin Elmer, USA). Relative luciferase activity was calculated after the activity of STAT3-dependent firefly luciferase had been normalized to that of Renilla luciferase. All values are expressed as - fold induction relative to basal activity.

The test system of experiment [2] is pSTAT3 (Tyr705) in MDA-MB-231 cells. Description: Western blot of constitutive STAT3 activation. From the text: It has been well recognized that the aberrant activation of STAT3 contributes to malignant transformation and tumorgenesis, and its activity is ultimately dependent upon phosphorylation of residue Y705. […] In this study, the ability of PMM-172 and Stattic inhibiting the constitutive STAT3 activation in MDA-MB-231 cells was investigated. […] We further measured STAT3 phosphorylation at Tyr705 in a time-course experiment.
Figure 6 (A) PMM-172 suppressed constitutive pSTAT3 (Tyr705) in a dose-dependent manner. (B) PMM-172 suppressed constitutive pSTAT3 (Tyr705) in a time-dependent manner. (C) MDA-MB-231 cells were treated with IL-6 (20 ng/mL) or vehicle for 30 min, with or without pretreatment with PMM-172 (2 μM) for 24 h. PMM-172 inhibited IL-6 induced phosphorylation of STAT3. (D) Stattic suppressed constitutive pSTAT3 (Tyr705) in a dose-dependent manner. (E) Stattic suppressed constitutive pSTAT3 (Tyr705) in a time-dependent manner. (F) Tyrosine phosphorylation of two STAT family proteins STAT1 and STAT5 were detected with specific antibodies. […] Data were shown as mean ± SD of three independent experiments. *P < 0.05, **P < 0.01. Cropped blots/gels were used in the figure and the gels had been run under the same experimental conditions; the full-length blots/gels are presented in Supplementary Figure S2.
Cells were rinsed twice with cold PBS and then lysed with RIPA buffer containing a protease inhibitor mixture at 1:100 dilution on ice for 30 min. Insoluble components of cell lysates were removed by centrifugation (4 °C, 12000 rmp, 10 min), and protein concentrations were measured using a Pierce BCA protein assay kit. Proteins were separated by sodium dodecyl sulfate-polyacrylamide gel electrophoresis (SDS-PAGE) and transferred from the gel onto polyvinylidene difluoride (PVDF) membranes. The membranes were blocked with 5% skim milk in TBST buffer for 1 h at room temperature, and then incubated with corresponding primary antibodies diluted in 5% milk-TBST solution at 4 °C with gentle shaking overnight. After washing five times (5 min each), corresponding HRP-conjugated secondary antibodies were incubated for 1 h at room temperature. Immunoreactive bands were visualized using an ECL detection kit (Invitrogen, USA) following the manufacturer’s instruction.
(In general: In western blotting, separated proteins are transferred to a membrane and probed.)

Experiment [3] has as its system SKBR-3. Briefly: MTT anti-proliferation assay. The following applies: 24 h treatment. As for the experimental part: (§1) Initial experiments were performed for evaluation of growth inhibition by the new compounds against six human breast cancer cell lines, including MCF-7 (ER+/PR+, HER-2-), BT474 (ER+/PR+, HER-2+), SKBR-3 (ER-/PR-/HER-2+), MDA-MB-436 (ER-/PR-/HER-2-), MDA-MB-231 (ER-/PR-/HER-2-), MDA-MB-468 (ER-/PR-/HER-2-) and non-tumorigenic MCF-10A cells. After 24 h treatment by the obtained compounds, the inhibition was assessed and the IC50 was summarized. […] Subsequently, the inhibition of STAT3 activation by PMM-172 and Stattic was evaluated using a dual-luciferase assay.
(§2) The anti-proliferative activities of the prepared compounds against MCF-7 (ER+/PR+, HER-2-), BT474 (ER+/PR+, HER-2+), SKBR-3 (ER-/PR-/HER-2+), MDA-MB-436 (ER-/PR-/HER-2-), MDA-MB-231 (ER-/PR-/HER-2-), MDA-MB-468 (ER-/PR-/HER-2-) and non-tumorigenic MCF-10A cell lines were evaluated using a standard (MTT)-based colorimetric assay with some modification. Cell lines were grown to log phase in DMEM supplemented with 10% fetal bovine serum. Cell suspensions were prepared and 100 μL/well dispensed into 96-well plates giving 10^4 cells/well. The subsequent incubation was permitted at 37 °C, 5% CO2 atmosphere for 24 h to allow the cells to reattach. Subsequently, cells were treated with the target compounds at increasing concentrations in the presence of 10% FBS for 24 h. Then, cell viability was assessed by the conventional 3-(4, 5-dimethylthiazol-2-yl)-2, 5-diphenyltetrazolium bromide (MTT) reduction assay and carried out strictly according to the manufacturer instructions. The absorbance (OD570) was read on an ELISA reader (Tecan, Austria). In all experiments, three replicate wells were used for each drug concentration. Each assay was carried out for at least three times.
On the technique in general: Formazan colour is commonly taken as a measure of viable cells.

The test system of experiment [4] is MDA-MB-436. Briefly: MTT anti-proliferation assay. Conditions: 24 h treatment. As for the experimental part: as §1, §2
In experiment [5] the test system is BT-474. Description: MTT anti-proliferation assay. The following applies: 24 h treatment. As for the experimental part:
as §1, §2

For experiment [6], the system named is MCF-7. Description: MTT anti-proliferation assay. The following applies: 24 h treatment. On the procedure:
as §1, §2

The test system of experiment [7] is MDA-MB-468. Briefly: MTT anti-proliferation assay. Conditions: 24 h treatment. As for the experimental part: as §1, §2
Experiment [8] concerns MDA-MB-231. Description: MTT anti-proliferation assay. Conditions: 24 h treatment. On the procedure:
as §1, §2

Experiment [9] concerns STAT3 nuclear localization in MDA-MB-231 cells. Briefly: STAT3 nuclear localization (cytoplasmic and nuclear extracts, Western blot). The following applies: MDA-MB-231, 24 h. As for the experimental part: It is known that the dimerization of STAT3 is induced by the phosphorylation at residue Tyr 705, which then leads to its nuclear translocation. Herein, we investigated the effect of PMM-172 and Stattic on STAT3 nuclear translocation. The cytoplasmic and nuclear proteins of treated cells were extracted and the expressions of STAT3 in both fractions were examined.
Figure 7 MDA-MB-231 cells were treated with indicated concentrations of PMM-172 or Stattic for 24 h, the expression levels of STAT3 in cytoplasmic and nuclear extracts were examined and relative expression levels were analyzed by Image J software. β-actin and Lamin B1 served as markers of cytoplasmic and nuclear extractions, respectively. […] (C) MCF-10A cells were treated with the indicated concentrations of PMM-172 for 24 h. PMM-172 had no effect on the level of the pSTAT3 level in MCF-10A cells. […] Data were shown as mean ± SD from three independent experiments, **P < 0.01. Cropped blots/gels were used in the figure and the gels had been run under the same experimental conditions; the full-length blots/gels are presented in Supplementary Figure S3.
To examine the relative proportion of STAT3 in the cytoplasm and nucleus, cytoplasmic and nuclear extracts were prepared. In brief, control and treated cells were collected and suspended in a buffer containing 10 mM HEPES (pH 7.9), 10 mM KCl, 0.1 mM EDTA (pH 8.0), 0.1 mM EGTA (pH 7.0), 1 mM DTT, 0.5 mM PMSF, 2 μg/mL leupeptin, 2 μg/mL aprotonin, 0.5 mg/mL benzamidine. After 15 min, NP-40 (0.25%) was added, and cell lysate was vortexed for 10 s and centrifuged at 10000 rmp at 4 °C for 1 min. […] The protein content in the nuclear and cytoplasmic fractions was determined using a Pierce BCA protein assay kit.
Cells were rinsed twice with cold PBS and then lysed with RIPA buffer containing a protease inhibitor mixture at 1:100 dilution on ice for 30 min. Insoluble components of cell lysates were removed by centrifugation (4 °C, 12000 rmp, 10 min), and protein concentrations were measured using a Pierce BCA protein assay kit. […]

`O=[N+]([O-])c1ccc2c(c1)S(=O)(=O)C=C2` [Stattic, reference compound]: the STAT3 luciferase activity entry in [1] is on record as “only a slight advantage over PMM-172”. In addition, the STAT3 expression result in experiment [2] is given as “had no effect on STAT3 expression”. In addition, in experiment [2], the “STAT3 phosphorylation at Tyr705, time-course” value was “reduced with the longer treatment”. Further, in experiment [2], the “level of Y705-phosphorylated STAT3 (constitutive), dose series” value is reported as “could reduce the level of Y705-phosphorylated STAT3 in MDA-MB-231 cells in a dose-dependent manner”. In addition, the IC50 in experiment [3] was found to be 3.39 ± 0.56 µM; in [4] it was 3.76 ± 0.5 µM; in [5] it was 5.11 ± 0.57 µM; in experiment [6], 5.85 ± 0.72 µM; in experiment [7], 3.54 ± 0.42 µM; in [8], 3.18 ± 0.33 µM. Further, in [9], the “level of STAT3 in the nuclear fraction” value was “suppressed STAT3 nuclear localization”.
